Legend:
blackgrass = experiment: Foliar spread test for upland field; assay type: in vivo, Alopecurus aegualis; design: key: 0 = normal development, 5 = all killed (6 ranks vs. untreated); conditions: foliar spray, 500 ppm, 3 weeks, glass house 25° C.
Procedure, shortened: (§1)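 Scores on a 0–5 scale (0 normal development, 5 all killed), relative to untreated controls, were taken 3 weeks post-treatment in a 25 °C glass house. Treatment was a uniform foliar spray at 500 ppm (0.5% surfactant) onto roughly 2-week-old soil-grown plants.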

velvetleaf [1] = experiment: Soil treatment test for upland field; assay type: in vivo, Abutilon theophrasti; design: key: 0 = normal development, 5 = all killed; conditions: 500 g/ha, 3 weeks, glass house 25° C.
Procedure, shortened: (§2)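 Pre-emergence: seeds sown in alluvial Ube soil, wettable powder diluted in water with 0.05% surfactant sprayed on soil surface at 500 g/ha. Plants held in glasshouse at 25° C average for 3 weeks. Damage scored 0 (normal) to 5 (all killed) versus untreated.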

green foxtail [2] = experiment: Soil treatment test for upland field; assay type: in vivo, Setaria viridis; design: key: 0 = normal development, 5 = all killed; conditions: 500 g/ha, 3 weeks, glass house 25° C.
Procedure, shortened: as §2

green foxtail [3] = experiment: Foliar spread test for upland field; assay type: in vivo, Setaria viridis; design: key: 0 = normal development, 5 = all killed (6 ranks vs. untreated); conditions: foliar spray, 500 ppm, 3 weeks, glass house 25° C.
Procedure, shortened: as §1

sugar beat [4] = experiment: Foliar spread test for upland field; assay type: in vivo; design: key: 0 = normal development, 5 = all killed (6 ranks vs. untreated); conditions: foliar spray, 500 ppm, 3 weeks, glass house 25° C.
Procedure, shortened: as §1

solgum [5] = experiment: Foliar spread test for upland field; assay type: in vivo; design: key: 0 = normal development, 5 = all killed (6 ranks vs. untreated); conditions: foliar spray, 500 ppm, 3 weeks, glass house 25° C.
Procedure, shortened: as §1

wheat [6] = experiment: Foliar spread test for upland field; assay type: in vivo; design: key: 0 = normal development, 5 = all killed (6 ranks vs. untreated); conditions: foliar spray, 500 ppm, 3 weeks, glass house 25° C.
Procedure, shortened: as §1

soybean = experiment: Foliar spread test for upland field; assay type: in vivo; design: key: 0 = normal development, 5 = all killed (6 ranks vs. untreated); conditions: foliar spray, 500 ppm, 3 weeks, glass house 25° C.
Procedure, shortened: as §1

corn [7] = experiment: Foliar spread test for upland field; assay type: in vivo; design: key: 0 = normal development, 5 = all killed (6 ranks vs. untreated); conditions: foliar spray, 500 ppm, 3 weeks, glass house 25° C.
Procedure, shortened: as §1

cotton = experiment: Foliar spread test for upland field; assay type: in vivo; design: key: 0 = normal development, 5 = all killed (6 ranks vs. untreated); conditions: foliar spray, 500 ppm, 3 weeks, glass house 25° C.
Procedure, shortened: as §1

common lambsquarters = experiment: Foliar spread test for upland field; assay type: in vivo, Chenopodium album; design: key: 0 = normal development, 5 = all killed (6 ranks vs. untreated); conditions: foliar spray, 500 ppm, 3 weeks, glass house 25° C.
Procedure, shortened: as §1

livid amaranth [8] = experiment: Foliar spread test for upland field; assay type: in vivo, Amaranthus lividus; design: key: 0 = normal development, 5 = all killed (6 ranks vs. untreated); conditions: foliar spray, 500 ppm, 3 weeks, glass house 25° C.
Procedure, shortened: as §1

[9] = test system: common Cocklebur (Xanthium strumarium); experiment: Soil treatment test for upland field; assay type: in vivo; conditions: 500 g/ha, 3 weeks, glass house 25° C. Further: key: 0: normal development; 1: Less damaged; 2: Slightly damaged; 3: Moderately damaged; 4: Severely damaged; 5: All killed.
Procedure, shortened: as §2

[10] = test system: sicklepod (Cassia obtusifolia); experiment: Soil treatment test for upland field; assay type: in vivo; conditions: 500 g/ha, 3 weeks, glass house 25° C. Further: key: 0: normal development; 1: Less damaged; 2: Slightly damaged; 3: Moderately damaged; 4: Severely damaged; 5: All killed.
Procedure, shortened: as §2

sugar beat [11] = experiment: Soil treatment test for upland field; assay type: in vivo; design: key: 0 = normal development, 5 = all killed; conditions: 500 g/ha, 3 weeks, glass house 25° C.
Procedure, shortened: as §2

solgum [12] = experiment: Soil treatment test for upland field; assay type: in vivo; design: key: 0 = normal development, 5 = all killed; conditions: 500 g/ha, 3 weeks, glass house 25° C.
Procedure, shortened: as §2

wheat [13] = experiment: Soil treatment test for upland field; assay type: in vivo; design: key: 0 = normal development, 5 = all killed; conditions: 500 g/ha, 3 weeks, glass house 25° C.
Procedure, shortened: as §2

corn [14] = experiment: Soil treatment test for upland field; assay type: in vivo; design: key: 0 = normal development, 5 = all killed; conditions: 500 g/ha, 3 weeks, glass house 25° C.
Procedure, shortened: as §2

morning glory = experiment: Foliar spread test for upland field; assay type: in vivo, Ipomoea spps.; design: key: 0 = normal development, 5 = all killed (6 ranks vs. untreated); conditions: foliar spray, 500 ppm, 3 weeks, glass house 25° C.
Procedure, shortened: as §1

barnyard grass = experiment: Soil treatment test for upland field; assay type: in vivo, Eschinochloa crusgalli; design: key: 0 = normal development, 5 = all killed; conditions: 500 g/ha, 3 weeks, glass house 25° C.
Procedure, shortened: as §2

arrowhead = experiment: Herbicidal test for paddy field; assay type: in vivo, Sagittaria pygmaea; conditions: 500 g/ha, dropwise addition to paddy water at 1.5 leaf stage of barnyard grass; glass house 25° C., 3 weeks; rank 0-5 vs non-treated district; further: key: 0: normal development; 1: Less damaged; 2: Slightly damaged; 3: Moderately damaged; 4: Severely damaged; 5: All killed
Procedure, shortened: (§3)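 Wettable-powder formulations in water with 0.05% surfactant were dripped onto flooded (3 cm) Ube alluvial-soil pots at 500 g/ha, applied at barnyard grass 1.5-leaf stage. Plants were kept in a glasshouse at 25° C. for 3 weeks. Damage was scored 0 (normal) to 5 (all killed) versus untreated plants.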

annual bluegrass = experiment: Soil treatment test for upland field; assay type: in vivo, Poa annua; design: key: 0 = normal development, 5 = all killed; conditions: 500 g/ha, 3 weeks, glass house 25° C.
Procedure, shortened: as §2

Cyperus serotinus Rottb. = experiment: Herbicidal test for paddy field; assay type: in vivo; conditions: 500 g/ha, dropwise addition to paddy water at 1.5 leaf stage of barnyard grass; glass house 25° C., 3 weeks; rank 0-5 vs non-treated district; further: key: 0: normal development; 1: Less damaged; 2: Slightly damaged; 3: Moderately damaged; 4: Severely damaged; 5: All killed
Procedure, shortened: as §3

livid amaranth [15] = experiment: Soil treatment test for upland field; assay type: in vivo, Amaranthus lividus; design: key: 0 = normal development, 5 = all killed; conditions: 500 g/ha, 3 weeks, glass house 25° C.
Procedure, shortened: as §2

velvetleaf [16] = experiment: Foliar spread test for upland field; assay type: in vivo, Abutilon theophrasti; design: key: 0 = normal development, 5 = all killed (6 ranks vs. untreated); conditions: foliar spray, 500 ppm, 3 weeks, glass house 25° C.
Procedure, shortened: as §1

barnyardgrjass = experiment: Foliar spread test for upland field; assay type: in vivo, Eschinochloa crusgalli; design: key: 0 = normal development, 5 = all killed (6 ranks vs. untreated); conditions: foliar spray, 500 ppm, 3 weeks, glass house 25° C.
Procedure, shortened: as §1

Fc1ccc2nc(-c3cccc(Oc4ccc(F)c(C(F)(F)F)c4)n3)oc2c1 [I-a-7]
4: Effects Common lambsquarters (common lambsquarters) | Effects Barnyardgrass (barnyard grass)
1: Effects Blackgrass (blackgrass) | Effects Corn (corn [7]) | Effects Barnyardgrass (barnyardgrjass)
2: Effects Solgum (solgum [5]) | Effects Wheat (wheat [6])
0: Effects Velvetleaf (velvetleaf [1]) | Effects Common Cocklebur [9] | Effects Solgum (solgum [12]) | Effects Wheat (wheat [13]) | Effects Corn (corn [14]) | Effects Arrowhead (arrowhead) | Effects Cyperus serotinus Rottb. (Cyperus serotinus Rottb.)
3: Effects Green foxtail (green foxtail [3]) | Effects Soybean (soybean) | Effects Sotton (cotton) | Effects Sicklepod [10] | Effects Morning glory (morning glory) | Effects Velvetleaf (velvetleaf [16])
5: Effects Green foxtail (green foxtail [2]) | Effects Sugar beat (sugar beat [4]) | Effects Livid amaranth (livid amaranth [8]) | Effects Sugar beat (sugar beat [11]) | Effects Annual bluegrass (annual bluegrass) | Effects Livid amaranth (livid amaranth [15])

Fc1ccc2nc(-c3cccc(Oc4cccc(C(F)(F)F)c4)n3)oc2c1 [I-a-6, 6-(6-fluorobenzoxazol-2-yl)-2-(3-trifluoromethylphenoxy)pyridine]
3: Effects Solgum (solgum [5]) | Effects Wheat (wheat [6]) | Effects Corn (corn [7]) | Effects Sotton (cotton)
2: Effects Velvetleaf (velvetleaf [1]) | Effects Cyperus serotinus Rottb. (Cyperus serotinus Rottb.)
1: Effects Sicklepod [10] | Effects Wheat (wheat [13])
5: Effects Blackgrass (blackgrass) | Effects Green foxtail (green foxtail [2]) | Effects Green foxtail (green foxtail [3]) | Effects Sugar beat (sugar beat [4]) | Effects Soybean (soybean) | Effects Common lambsquarters (common lambsquarters) | Effects Livid amaranth (livid amaranth [8]) | Effects Sugar beat (sugar beat [11]) | Effects Morning glory (morning glory) | Effects Barnyardgrass (barnyard grass) | Effects Annual bluegrass (annual bluegrass) | Effects Livid amaranth (livid amaranth [15]) | Effects Velvetleaf (velvetleaf [16]) | Effects Barnyardgrass (barnyardgrjass)
0: Effects Common Cocklebur [9] | Effects Solgum (solgum [12]) | Effects Corn (corn [14]) | Effects Arrowhead (arrowhead)

FC(F)(F)c1cccc(Oc2cccc(-c3nc4cc(Cl)ccc4o3)n2)c1 [I-a-3, 6-(5-chlorobenzoxazol-2-yl)-2-(3-trifluoromethylphenoxy)pyridine]
0: Effects Arrowhead (arrowhead) | Effects Cyperus serotinus Rottb. (Cyperus serotinus Rottb.)
5: Effects Green foxtail (green foxtail [2]) | Effects Common lambsquarters (common lambsquarters) | Effects Livid amaranth (livid amaranth [8]) | Effects Sicklepod [10] | Effects Sugar beat (sugar beat [11]) | Effects Morning glory (morning glory) | Effects Annual bluegrass (annual bluegrass) | Effects Livid amaranth (livid amaranth [15])
1: Effects Blackgrass (blackgrass) | Effects Solgum (solgum [5]) | Effects Wheat (wheat [6]) | Effects Corn (corn [7]) | Effects Solgum (solgum [12]) | Effects Wheat (wheat [13]) | Effects Corn (corn [14]) | Effects Barnyardgrass (barnyardgrjass)
3: Effects Velvetleaf (velvetleaf [1]) | Effects Green foxtail (green foxtail [3]) | Effects Soybean (soybean)
4: Effects Sugar beat (sugar beat [4]) | Effects Sotton (cotton) | Effects Barnyardgrass (barnyard grass) | Effects Velvetleaf (velvetleaf [16])
2: Effects Common Cocklebur [9]
